This note sets out measurements from patent publication US10273223B2, “Substituted 6,5-fused bicyclic heteroaryl compounds” (Epizyme, Inc., priority 2011, dated 2019).

Each structure is given as a SMILES string.

Chain of EZH2 (PRC2 enzyme complex: EZH2, EED, Suz12, RbAp48) (Homo sapiens (Human), UniProt Q15910) (Q15910 other isoform, or with tags, fused parts or gaps): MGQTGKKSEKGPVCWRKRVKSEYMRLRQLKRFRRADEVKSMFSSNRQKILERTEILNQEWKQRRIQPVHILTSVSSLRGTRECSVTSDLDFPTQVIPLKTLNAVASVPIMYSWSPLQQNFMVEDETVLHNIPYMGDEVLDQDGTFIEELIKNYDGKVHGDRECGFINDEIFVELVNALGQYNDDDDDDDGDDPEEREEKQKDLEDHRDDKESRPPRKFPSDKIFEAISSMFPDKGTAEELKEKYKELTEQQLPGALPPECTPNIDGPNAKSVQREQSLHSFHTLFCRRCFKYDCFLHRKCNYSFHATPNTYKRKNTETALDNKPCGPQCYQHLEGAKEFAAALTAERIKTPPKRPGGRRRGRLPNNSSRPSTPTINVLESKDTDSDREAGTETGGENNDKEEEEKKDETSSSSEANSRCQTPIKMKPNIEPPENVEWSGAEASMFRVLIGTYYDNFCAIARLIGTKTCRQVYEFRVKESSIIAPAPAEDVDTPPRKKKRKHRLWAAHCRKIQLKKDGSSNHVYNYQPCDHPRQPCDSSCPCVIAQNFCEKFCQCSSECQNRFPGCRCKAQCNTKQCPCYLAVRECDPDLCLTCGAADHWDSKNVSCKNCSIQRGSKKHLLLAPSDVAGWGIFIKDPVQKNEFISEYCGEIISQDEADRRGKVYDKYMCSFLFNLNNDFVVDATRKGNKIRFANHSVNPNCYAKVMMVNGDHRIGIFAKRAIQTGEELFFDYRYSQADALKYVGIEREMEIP
Chain of EZH2 (PRC2 enzyme complex: EZH2, EED, Suz12, RbAp48) (Homo sapiens (Human), UniProt Q15910) (O75530 whole entry partner): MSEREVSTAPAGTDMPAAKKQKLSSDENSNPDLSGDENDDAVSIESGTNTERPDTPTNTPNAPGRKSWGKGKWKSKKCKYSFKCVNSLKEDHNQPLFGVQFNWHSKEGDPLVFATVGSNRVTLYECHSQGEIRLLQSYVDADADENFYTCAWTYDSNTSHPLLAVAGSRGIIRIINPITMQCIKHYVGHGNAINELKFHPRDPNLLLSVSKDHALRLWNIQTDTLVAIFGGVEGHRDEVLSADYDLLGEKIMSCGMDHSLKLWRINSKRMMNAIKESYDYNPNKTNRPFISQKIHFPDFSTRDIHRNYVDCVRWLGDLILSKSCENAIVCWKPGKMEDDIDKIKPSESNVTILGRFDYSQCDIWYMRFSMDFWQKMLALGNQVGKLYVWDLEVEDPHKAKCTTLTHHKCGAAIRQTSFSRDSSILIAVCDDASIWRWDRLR
Chain of EZH2 (PRC2 enzyme complex: EZH2, EED, Suz12, RbAp48) (Homo sapiens (Human), UniProt Q15910) (Q15022 whole entry partner): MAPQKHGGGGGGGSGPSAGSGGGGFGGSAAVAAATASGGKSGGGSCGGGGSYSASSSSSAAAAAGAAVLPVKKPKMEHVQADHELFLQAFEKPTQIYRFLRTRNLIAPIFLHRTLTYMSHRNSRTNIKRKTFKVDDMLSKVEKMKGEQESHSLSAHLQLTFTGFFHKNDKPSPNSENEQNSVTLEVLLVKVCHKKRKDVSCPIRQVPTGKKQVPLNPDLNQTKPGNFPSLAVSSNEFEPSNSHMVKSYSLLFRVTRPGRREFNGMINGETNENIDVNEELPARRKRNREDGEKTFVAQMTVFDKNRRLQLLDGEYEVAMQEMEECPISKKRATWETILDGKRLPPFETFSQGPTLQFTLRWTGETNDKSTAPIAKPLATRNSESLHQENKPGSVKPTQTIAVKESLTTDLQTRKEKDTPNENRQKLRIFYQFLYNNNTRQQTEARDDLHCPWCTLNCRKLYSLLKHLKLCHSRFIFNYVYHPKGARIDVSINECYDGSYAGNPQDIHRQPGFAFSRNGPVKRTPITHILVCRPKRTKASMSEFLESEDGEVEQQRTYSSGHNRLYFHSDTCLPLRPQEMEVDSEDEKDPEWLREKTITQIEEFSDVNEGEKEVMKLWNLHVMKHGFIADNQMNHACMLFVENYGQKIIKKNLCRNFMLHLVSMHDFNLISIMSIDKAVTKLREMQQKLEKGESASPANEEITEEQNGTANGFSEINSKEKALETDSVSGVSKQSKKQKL
Chain of EZH2 (PRC2 enzyme complex: EZH2, EED, Suz12, RbAp48) (Homo sapiens (Human), UniProt Q15910) (Q09028 whole entry partner): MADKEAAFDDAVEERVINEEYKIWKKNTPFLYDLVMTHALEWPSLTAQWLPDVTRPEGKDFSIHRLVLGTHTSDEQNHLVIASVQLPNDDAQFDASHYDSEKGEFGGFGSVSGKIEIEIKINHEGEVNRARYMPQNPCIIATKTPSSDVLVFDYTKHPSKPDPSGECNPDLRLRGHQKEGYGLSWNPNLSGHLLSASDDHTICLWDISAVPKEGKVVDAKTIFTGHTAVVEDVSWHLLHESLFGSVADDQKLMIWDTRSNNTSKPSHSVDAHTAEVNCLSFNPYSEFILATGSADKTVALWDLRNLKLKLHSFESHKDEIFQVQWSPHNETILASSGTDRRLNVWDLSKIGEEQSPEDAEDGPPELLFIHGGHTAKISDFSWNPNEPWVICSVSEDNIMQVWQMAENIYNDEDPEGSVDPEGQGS

For the first test, the target named is EZH2 (PRC2 enzyme complex: EZH2, EED, Suz12, RbAp48) (Homo sapiens (Human), UniProt O75530+Q09028+Q15022+Q15910). In words: PRC2 enzyme assay on peptide substrates (3H-SAM Flashplate).
Chain of EZH2 (PRC2 enzyme complex: EZH2, EED, Suz12, RbAp48) (Homo sapiens (Human), UniProt O75530+Q09028+Q15022+Q15910) (Q15910 other isoform, or with tags, fused parts or gaps): as the sequence (Q15910 other isoform, or with tags, fused parts or gaps) above
Chain of EZH2 (PRC2 enzyme complex: EZH2, EED, Suz12, RbAp48) (Homo sapiens (Human), UniProt O75530+Q09028+Q15022+Q15910) (O75530 whole entry partner): as the sequence (O75530 whole entry partner) above
Chain of EZH2 (PRC2 enzyme complex: EZH2, EED, Suz12, RbAp48) (Homo sapiens (Human), UniProt O75530+Q09028+Q15022+Q15910) (Q15022 whole entry partner): as the sequence (Q15022 whole entry partner) above
Chain of EZH2 (PRC2 enzyme complex: EZH2, EED, Suz12, RbAp48) (Homo sapiens (Human), UniProt O75530+Q09028+Q15022+Q15910) (Q09028 whole entry partner): as the sequence (Q09028 whole entry partner) above
Details: not given
Turning to `Cc1cc(C)c(CNC(=O)c2c(Cl)c(-c3ccc4c(c3)OCCO4)nc3c2cnn3C(C)C)c(=O)[nH]1` [Compound A-47], the IC50 (in general, the concentration that gives 50% inhibition) lay in the range of 0.3 to 1 µM.
On the same count and under the same terms, with `Cc1cc(C(C)C)c(CNC(=O)c2cc(C3=CC(C)(C)NC(C)(C)C3)nc3c2cnn3C(C)C)c(=O)[nH]1` [Compound B-148] the figure was 10 to 50 µM; with `CNCCN(C)Cc1cccc(-c2cc(C(=O)NCc3c(C)cc(C)[nH]c3=O)c3cnn(C(C)C)c3n2)c1` [Compound A-58], 1 to 3 µM; with `Cc1cc[nH]c(=O)c1CNC(=O)c1cc(-c2ccc3c(c2)OCCO3)nc2c1cnn2C(C)(C)C` [Compound A-77], 10 to 50 µM.
The same measure, in the same setting: with `Cc1cc(C)c(CNC(=O)c2cc(C(C)C)nc3c2cnn3C(C)C)c(=O)[nH]1` [Compound B-109] the figure was 1 to 3 µM; with `Cc1cc(C)c(CNC(=O)c2cc(-c3ccccc3CN)nc3c2cnn3C(C)C)c(=O)[nH]1` [Compound A-68], 3 to 10 µM.
Still for that read-out and setting: the result for `Cc1cc(C)c(CNC(=O)c2cc(-c3cccc(CN(C)CCN4CCCC4)c3)nc3c2cnn3C(C)C)c(=O)[nH]1` [Compound A-41] reads 0.3 to 1 µM; that for `Cc1cc(C)c(CNC(=O)c2cc(-c3cccc(CNCCCN(C)C)c3)nc3c2cnn3C(C)C)c(=O)[nH]1` [Compound A-125], 1 to 3 µM.
On to `Cc1cc(C)n(C)c(=O)c1CNC(=O)c1cc(-c2cccc(CN(C)CCN(C)C)c2)nc2c1cnn2C(C)C` [Compound A-74], for which the IC50 lay within 10 to 50 µM.

Another test concerns the target EZH2 (PRC2 enzyme complex: EZH2, EED, Suz12, RbAp48) (Homo sapiens (Human), UniProt Q15910). The test is described as above. The following applies: read-out: EZH2 IC50; PRC2 enzyme assays on peptide substrates; 4 nM enzyme, 30 min preincubation at 25° C.; EZH2 form (wild-type or Y641 mutant) not stated in tables.
Take `CNCCN1CCC(c2cc(C(=O)NCC3=C(C)C=C(C)NC3C)c3cnn(C4CCCC4)c3c2)CC1` [Compound D-51]: the IC50 was < 300 nM.
On the same count and under the same terms, the result for `Cc1cc(C)c(CNC(=O)c2cc(C3CC(C)(C)NC(C)(C)C3)nc3c2cnn3C2CCCC2)c(=O)[nH]1` [Compound B-4, 1-cyclopentyl-N-((4,6-dimethyl-2-oxo-1,2-dihydropyridin-3-yl)methyl)-6-(2,2,6,6-tetramethylpiperidin-4-yl)-1H-pyrazolo[3,4-b]pyridine-4-carboxamide] reads < 300 nM.
In the case of `CC1=CC(C)=C(CNC(=O)c2cc(C3=CCN(C(=O)C4CN(C)C4)CC3)cc3c2cnn3C2CCCC2)C(C)N1` [Compound D-50], the IC50 was < 300 nM.
